row,Structure (SMILES),melting point
1,CCCCOc1ccc2c(=O)c(S(C)=O)cn(C)c2c1 (centres undefined),148 to 150 °C
2,CCCCCc1c(C)nc(C)c(CO)c1-c1ccccc1,99 to 100 °C
3,Cn1c2ccccc2c2cccc(N)c21,90 to 92 °C
4,CCOC(=O)C1=C(COCCNC(=O)N2CCN(C)CC2)NC(C)=C(C(=O)OC)C1c1ccccc1Cl (centres undefined),78 to 80 °C
5,CN(C)C(=O)c1ccc(N)cc1S(=O)(=O)NC(C)(C)C,205 to 208 °C
6,CCOC(=O)CSc1ncnc2c(O)n(C(C)(C)C)nc12,129 to 131 °C
7,CCOC(=O)c1sc2ncccc2c1Br,100 to 102 °C
8,O=C(NCCCl)Nc1ccc(CCCc2ccccc2OCc2ccccc2)cc1,120 to 121 °C
9,CCCCOC(=O)CCCCCCCCCCCOCC(O)CNCCO (centres undefined),48.6 to 50.2 °C
10,CC1=CC(O)(c2nc3ccccc3s2)C=C(C)C1=O,132 °C
11,COc1ccc2cc([C@H](C)C(=O)OCC(=O)N(C)CC(=O)OCCO[N+](=O)[O-])ccc2c1,71 to 73 °C
12,"CN(Cc1cc2c(=O)c(C(=O)NCc3ccc(Cl)cc3)cn(C)c2o1)CC(O)c1ncccn1 (single isomer, unassigned; (+))",127 to 129 °C
13,CC(=O)Oc1ccc(P(c2ccccc2)c2ccc(OC(C)=O)cc2)cc1,118 to 120 °C
14,CCNC(=O)C(C)(C)c1ccc(C(=O)Nc2cn3cc(Cl)ccc3n2)cc1,228 to 230 °C
15,O=C(Nc1cccc(C(=O)O)c1OCc1ccccc1Cl)c1ccccc1Cl,182 to 183 °C
16,O=C1C(=O)c2ccccc2C2=C1SCC1(CCSCC1)O2,221 to 223 °C
17,CCCCCCCC(=O)OC1CC(=O)NC1=O (centres undefined),60.5 to 61 °C
18,COc1cc2c(cc1C(F)(F)F)N(C(=O)Nc1cccc(S(=O)(=O)Nc3cccnc3)c1)CC2,> 215 °C
19,O=C(CCl)Nc1ccc(C(O)(C(F)(F)F)C(F)(F)F)cc1O,218 to 219 °C
20,N#Cc1ccc(OCCCc2cn(C(c3ccccc3)(c3ccccc3)c3ccccc3)cn2)cc1,187 to 188 °C
21,BrCCOc1cccc2c1SCCC2,62 °C
22,O=C(CCCCCNC(=O)CCCc1ccccc1)NO,92 to 93 °C
23,COc1ccc(CC(Cc2ccccc2)C(=O)O)cc1 (centres undefined),72 to 76.5 °C
24,CCc1nnc2c(OC)nc3cc(OC)ccc3n12,184 to 188 °C
25,FC(F)(F)c1sc(S)nc1Cl,142 to 144 °C

row,Structure (SMILES),melting point
1,Nc1nc2[nH]c(CCC#Cc3ccc(C(=O)N[C@@H](CCC(=O)O)C(=O)O)s3)cc2c(=O)[nH]1,196 to 197 °C
2,Cc1cc(Cl)ccc1OCC(=O)N1Cc2ccc(C(=O)c3ccc(Cl)cc3)n2Cc2ccccc21,175 to 176 °C
3,CN(CC(=O)C(Cc1ccccc1)NC(=O)c1ccccc1)C(=O)OCc1ccccc1 (centres undefined),140 to 141 °C
4,NC(=O)N(O)CCOc1ccc2c(c1)CCN(CCCc1ccccc1)S2(=O)=O,134 to 135 °C
5,CCCCCCCN(Cc1ccc(CCC(C)C)cc1)C(=O)NC1(OC)C=C(C)C=CN1 (centres undefined),90 to 91 °C
6,Cc1cccc(Cl)c1-n1nc(C(C)C)c(C#N)c1N,116 to 118 °C
7,Oc1nc(Cl)nc(NN=Cc2cc(C(F)(F)F)cc(C(F)(F)F)c2)n1,258 °C
8,CC(C)(C)c1ccc(CC2OCCN(Cc3ccccc3)C2=O)cc1 (centres undefined),190 to 193 °C
9,CC(=O)N1CCN(c2c(N[C@@H](Cc3ccccc3)C(=O)O)c(=O)c2=O)CC1,155 to 158 °C
10,C[Si](C)(C)C#Cc1ccc(C=CC2=CC(c3ccc(C#C[Si](C)(C)C)cc3)N(c3ccccc3)N2)cc1 (centres undefined),128 to 130 °C
11,O=C(O)c1csnc1-c1cccc(Cl)c1,215 to 216 °C
12,CCOc1c(OC)cc(C)c(C(=O)c2c(OC)ccc(Cl)c2C)c1OC,131 to 132 °C
13,COc1c(OCC(F)(F)F)ccnc1CSc1nc2ccc(C(F)(F)F)cc2[nH]1,80 to 82 °C
14,COc1cc(NC(=O)Nc2c(-c3ccccc3Cl)c3cc(C)c(C)cc3n(C)c2=O)cc(OC)c1OC(C)=O,233 to 234 °C
15,Cc1nc(NC(=O)Nc2ccccc2)n(C)c(=O)c1CCN1CCC(Cc2nc3ccccc3n2Cc2ccc(F)cc2)CC1,157 °C
16,CCn1c2ccc(I)cc2c2cc(I)ccc21,75 to 79 °C
17,CN1CCC(OC2c3ccccc3CCn3cc(-c4ccc(Br)cc4)nc32)CC1 (centres undefined),142 °C
18,CCCCNc1nc(-c2ccc(F)cc2)c(-c2ccc(S(C)(=O)=O)cc2)s1,134 to 135 °C
19,COc1ccc(-c2nc3ccc(C(C)(C)CNS(C)(=O)=O)cc3[nH]2)cc1,146 to 148 °C
20,O=c1ccc(-c2ccco2)n[nH]1,183 to 184 °C
21,N#CCOc1cccc2[nH]c3ccccc3c12,120 °C
22,N#Cc1ccc2c(c1)S(=O)(=O)N=CN2C1CC1,268 to 270 °C
23,CC(COc1ccc(CC2SC(=O)NC2=O)cc1)NCC(O)COc1ccccc1 (centres undefined),64 to 68 °C
24,CC(=O)OCC1OC(n2cc(C(Br)=CBr)c(=O)[nH]c2=O)C(OC(C)=O)C1OC(C)=O (centres undefined),83 to 85 °C

# From a melting point compilation (Tetko et al.; mined from patent text by program, amines drawn as free bases though some values may be those of a salt)
